Results taken from PMC8748916, “Microbial enzymes induce colitis by reactivating triclosan in the mouse gastrointestinal tract” (Nature Communications, 2022).
“And” between values parts separate entries of the source, which are not always exact repeats. Equal values may be shown once. Read-outs that look alike come from different tables or passages of the source.

Experiments:
[1] = cited from earlier work
R. gnavus 3 GUS = R. gnavus 3 GUS (Mediterraneibacter gnavus, UniProt Z9UC37PQH0); assay: In vitro IC50 assay (TCS-G to TCS conversion, HPLC); assay type: biochemical
Caco2 cells = assay: Cell proliferation assay (MTT); assay type: cell-based, human
Description: (§1) Mouse (MC38) or human (Caco2 and HCT-116) intestinal cells were grown in DMEM medium fortified with 10% FBS (EMD Millipore Corporation). The cells were seeded in 96-well plates, then treated with GUSi or vehicle (0.2% v/v DMSO) for 24 h. Cell viability was determined using an MTT assay.
(§2) Fig. S14. GUSi treatment has little effect on the proliferation of mouse or human intestinal cells in vitro.
(§3) Mouse (MC38) or human (Caco2 and HCT-116) intestinal cells were treated with GUSi or vehicle (0.2% v/v
(§4) DMSO) for 24 h, then cell viability was analyzed using a MTT assay. The data are mean ± SEM, n = 5-6 per

HCT-116 cells = assay: Cell proliferation assay (MTT); assay type: cell-based, human
Description: as §1, §2, §3, §4

[2] = tested on: F. prausnitzii 2-L1 (Fp2-L1) GUS; assay: In vitro IC50 assay (TCS-G to TCS conversion, HPLC); assay type: biochemical; conditions: for F. prausnitzii 2-L1 GUS %inhibition: Fig. 4b, triplicate
[3] = tested on: gut microbial β-glucuronidase (GUS) enzymes; assay: In vitro UDH (coupled) assay of TCS-G cleavage by a panel of 32 purified GUS enzymes; assay type: biochemical
[4] = GUSi 1.23457 uM, Fig. 4c, triplicate
[5] = GUSi 3.7037 uM, Fig. 4c, triplicate
[6] = GUSi 11.1111 uM, Fig. 4c, triplicate
[7] = GUSi 33.3333 uM, Fig. 4c, triplicate
[8] = GUSi 100 uM, Fig. 4c, triplicate
[9] = 24-h treatment, concentration up to 10 µM

Chain of R. gnavus 3 GUS (Z9UC37PQH0 1-754): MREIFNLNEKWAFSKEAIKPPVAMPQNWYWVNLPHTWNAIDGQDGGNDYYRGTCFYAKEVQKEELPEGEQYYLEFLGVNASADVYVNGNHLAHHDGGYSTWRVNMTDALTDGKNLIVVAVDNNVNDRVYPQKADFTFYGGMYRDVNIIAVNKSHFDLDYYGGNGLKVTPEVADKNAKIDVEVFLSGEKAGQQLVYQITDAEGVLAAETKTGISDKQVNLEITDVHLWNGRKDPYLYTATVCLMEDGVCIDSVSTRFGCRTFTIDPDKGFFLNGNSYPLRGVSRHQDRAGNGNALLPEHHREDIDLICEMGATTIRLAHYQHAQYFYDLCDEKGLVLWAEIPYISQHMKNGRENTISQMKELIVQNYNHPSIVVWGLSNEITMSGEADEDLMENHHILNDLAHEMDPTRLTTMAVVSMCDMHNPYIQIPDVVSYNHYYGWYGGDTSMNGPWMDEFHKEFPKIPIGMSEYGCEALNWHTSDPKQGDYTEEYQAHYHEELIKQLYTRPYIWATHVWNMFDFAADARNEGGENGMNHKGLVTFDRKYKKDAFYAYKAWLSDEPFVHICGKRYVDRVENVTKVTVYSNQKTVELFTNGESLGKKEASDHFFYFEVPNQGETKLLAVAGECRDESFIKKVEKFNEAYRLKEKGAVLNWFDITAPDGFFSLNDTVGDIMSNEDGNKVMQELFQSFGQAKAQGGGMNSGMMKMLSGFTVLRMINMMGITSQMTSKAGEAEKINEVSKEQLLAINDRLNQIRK

For `Oc1cc(Cl)ccc1Oc1ccc(Cl)cc1Cl` [TCS, Triclosan], the “No-Observed-Adverse-Effect Level (NOAEL)” value ([1]; ref 36 (reply to reviewers)) is listed as 25 to 40 mg/kg/day and the “calculated Acceptable Daily Intake (ADI)” value ([1]; ref 37 (reply to reviewers)) is listed as 0.25 to 0.4 mg/kg/day.
With `C1CCc2c(c(N3CCOCC3)nc3sc4c(N5CCNCC5)nnnc4c23)C1` [GUSi, UNC10201652] the “R. gnavus 3 GUS % inhibition” value (R. gnavus 3 GUS; GUSi 0.0457247 uM, Fig. 4c, triplicate) was -1.753% and -3.75% and 4.591%, the “R. gnavus 3 GUS % inhibition” value (R. gnavus 3 GUS; GUSi 0.137174 uM, Fig. 4c, triplicate) was 0.1348% and -1.9775% and 2.5447% and the “R. gnavus 3 GUS % inhibition” value (R. gnavus 3 GUS; [4]) was 15.6836% and 27.3384%. For the same compound, the inhibition at 1.23457 µM (R. gnavus 3 GUS; [4]) was 17.8%, the “R. gnavus 3 GUS % inhibition” value (R. gnavus 3 GUS; [5]) was 45.7722% and 58.3391% and the inhibition at 3.7037 µM (R. gnavus 3 GUS; [5]) was 46.7%. For the same compound, the “R. gnavus 3 GUS % inhibition” value (R. gnavus 3 GUS; [6]) was 62.2571% and 74.9484%, the inhibition at 11.1111 µM (R. gnavus 3 GUS; [6]) was 64.9% and the “R. gnavus 3 GUS % inhibition” value (R. gnavus 3 GUS; [7]) was 76.969% and 90.9388%. For the same compound, the inhibition at 33.3333 µM (R. gnavus 3 GUS; [7]) was 79.3%, the “R. gnavus 3 GUS % inhibition” value (R. gnavus 3 GUS; [8]) was 87.2656% and 101.29% and the inhibition at 100 µM (R. gnavus 3 GUS; [8]) was 89.5%. For the same compound, the IC50 (R. gnavus 3 GUS; conversion of TCS-G (200 µM) to TCS, FMN-binding GUS) was 3.7 ± 0.5 µM, the “effect on cell growth (MTT)” value (Caco2 cells; [9]) was “little effect” and the “Cell proliferation (Fig. S14)” value (Caco2 cells; Caco2, concentration 1, replicates) was 98.3792 and 85.2575 and 104.44 and 99.0453 and 92.8508 and 100.244. The “Cell proliferation (Fig. S14)” value (Caco2 cells; Caco2, concentration 2, replicates) was 86.1234 and 96.6474 and 97.7798 and 94.9156 and 100.844, the “Cell proliferation (Fig. S14)” value (Caco2 cells; Caco2, concentration 5, replicates) was 95.1821 and 92.3845 and 92.5844 and 91.9849 and 82.46 and 86.0568 and the “Cell proliferation (Fig. S14)” value (Caco2 cells; Caco2, concentration 10, replicates) was 85.1243 and 87.6554 and 72.6021 and 79.7957 and 82.3268 and 62.0782. For the same compound, the “effect on cell growth (MTT)” value (HCT-116 cells; [9]) was “little effect”, the “Cell proliferation (Fig. S14)” value (HCT-116 cells; HCT 116, concentration 1, replicates) was 91.3142 and 95.487 and 92.4485 and 104.886 and 100.024 and the “Cell proliferation (Fig. S14)” value (HCT-116 cells; HCT 116, concentration 2, replicates) was 98.4038 and 88.5189 and 93.2993 and 86.1692 and 98.1202 and 99.3761. For the same compound, the “Cell proliferation (Fig. S14)” value (HCT-116 cells; HCT 116, concentration 5, replicates) was 113.11 and 102.536 and 95.2844 and 92.408 and 101.807 and 114.082, the “Cell proliferation (Fig. S14)” value (HCT-116 cells; HCT 116, concentration 10, replicates) was 87.263 and 108.329 and 83.941 and 79.8088 and 79.1606 and 114.487 and the “F. prausnitzii 2-L1 GUS %inhibition” value ([2]; GUSi 0.0457247 uM) was 0% and 0.2667%. For the same compound, the “F. prausnitzii 2-L1 GUS %inhibition” value ([2]; GUSi 0.137174 uM) was 0% and 0.1263%, the “F. prausnitzii 2-L1 GUS %inhibition” value ([2]; GUSi 0.411523 uM) was 0% and the “F. prausnitzii 2-L1 GUS %inhibition” value ([2]; GUSi 3.7037 uM) was 74.6624% and 62.5632% and 66.5428%. For the same compound, the “F. prausnitzii 2-L1 GUS %inhibition” value ([2]; GUSi 11.1111 uM) was 93.6484% and 88.7563% and 88.6045%, the “F. prausnitzii 2-L1 GUS %inhibition” value ([2]; GUSi 33.3333 uM) was 99.4351% and 98.0067% and 94.7151% and the “F. prausnitzii 2-L1 GUS %inhibition” value ([2]; GUSi 100 uM) was 100.964% and 99.7754% and 96.4492%. The IC50 ([2]; conversion of TCS-G (200 µM) to TCS, Loop 1 GUS) was 2.8 ± 0.1 µM.
In the case of `O=C(O)C1OC(Oc2cc(Cl)ccc2Oc2ccc(Cl)cc2Cl)C(O)C(O)C1O` (centres unmarked) [TCS-G, triclosan-glucuronide], the Rate [3] is reported as 0.1092 µM/s and 0.1031 µM/s and 0.1177 µM/s, the Rate ([3]; GUS: Akkermansia muciniphila, Fig. 3a, replicates 1-3) is reported as 0.0108 µM/s and 0.0181 µM/s and 0.0194 µM/s and the Rate ([3]; GUS: Akkermansia sp. CAG:344, Fig. 3a, replicates 1-3) is reported as 0.0157 µM/s and 0.0151 µM/s and 0.0237 µM/s. The Rate ([3]; GUS: Bacteroides MSP (BMSP), Fig. 3a, replicates 1-3) was 0.0000 µM/s and 0.0073 µM/s and 0.0072 µM/s, the Rate ([3]; GUS: Bacteroides coprocola CAG: 126, Fig. 3a, replicates 1-3) was 0.0000 uM/s (2×) and 0.0056 uM/s and the Rate ([3]; GUS: Bacteroides dorei, Fig. 3a, replicates 1-3) was 0.0000 µM/s. For the same compound, the Rate ([3]; GUS: Bacteroides fragillis (1, mini loop), Fig. 3a, replicates 1-3) was 0.0000 uM/s (2×) and 0.0043 uM/s, the Rate ([3]; GUS: Bacteroides fragillis (2, No Loop), Fig. 3a, replicates 1-3) was 0.0228 µM/s and 0.0242 µM/s and 0.0201 µM/s and the Rate ([3]; GUS: Bacteroides ovatus 1 (Double mini loop), Fig. 3a, replicates 1-3) was 0.0000 µM/s and 0.0060 µM/s and 0.0033 µM/s. The Rate ([3]; GUS: Bacteroides ovatus 2 (loop 2), Fig. 3a, replicates 1-3) was 0.0287 µM/s and 0.0311 µM/s and 0.0066 µM/s, the Rate ([3]; GUS: Bacteroides uniformis 1, Fig. 3a, replicates 1-3) was 0.0000 µM/s and the Rate ([3]; GUS: Bacteroides uniformis 2, Fig. 3a, replicates 1-3) was 0.0217 µM/s and 0.0464 µM/s and 0.0098 µM/s. The Rate ([3]; GUS: Bacteroides uniformis 3, Fig. 3a, replicates 1-3) was 0.0000 µM/s, the Rate ([3]; GUS: Clostridiales sp., Fig. 3a, replicates 1-3) was 0.2137 µM/s and 0.2298 µM/s and 0.2970 µM/s and the Rate ([3]; GUS: Escherichia coli, Fig. 3a, replicates 1-3) was 0.0775 µM/s and 0.0865 µM/s and 0.0858 µM/s. The Rate ([3]; GUS: Eubacterium eligens, Fig. 3a, replicates 1-3) was 0.1302 µM/s and 0.1403 µM/s and 0.1746 µM/s, the Rate ([3]; GUS: Eubacterium sp. CAG: 76, Fig. 3a, replicates 1-3) was 0.2371 µM/s and 0.2156 µM/s and 0.2776 µM/s and the Rate ([3]; GUS: Faecalibacterium prausnitzii 2-L1, Fig. 3a, replicates 1-3) was 0.4231 µM/s and 0.3684 µM/s and 0.3821 µM/s. The Rate ([3]; GUS: Faecalibacterium prausnitzii L2-6, Fig. 3a, replicates 1-3) was 0.2237 µM/s and 0.2529 µM/s and 0.1639 µM/s, the Rate ([3]; GUS: Faecalibacterium prausnitzii, Fig. 3a, replicates 1-3) was 0.1749 µM/s and 0.1228 µM/s and 0.2576 µM/s and the Rate ([3]; GUS: Fusicatenibacter saccharivorans, Fig. 3a, replicates 1-3) was 0.0089 µM/s and 0.0000 µM/s and 0.0052 µM/s. For the same compound, the Rate ([3]; GUS: H11G11, Fig. 3a, replicates 1-3) was 0.0684 µM/s and 0.0777 µM/s and 0.0864 µM/s, the Rate ([3]; GUS: Lactobacillus rhamnosus, Fig. 3a, replicates 1-3) was 0.0323 µM/s and 0.1224 µM/s and 0.1254 µM/s and the Rate ([3]; GUS: Parabacteroides merdea, Fig. 3a, replicates 1-3) was 0.0043 µM/s and 0.0011 µM/s and 0.0000 µM/s. For the same compound, the Rate ([3]; GUS: Roseburia hominis 2, Fig. 3a, replicates 1-3) was 0.0519 µM/s and 0.0527 µM/s and 0.0448 µM/s, the Rate ([3]; GUS: Roseburia hominis 3, Fig. 3a, replicates 1-3) was 0.4975 µM/s and 0.4668 µM/s and 0.4395 µM/s and the Rate ([3]; GUS: Roseburia hominis, Fig. 3a, replicates 1-3) was 0.0330 µM/s and 0.0266 µM/s and 0.0438 µM/s. The Rate ([3]; GUS: Roseburia intestinalis, Fig. 3a, replicates 1-3) was 0.0269 µM/s and 0.0251 µM/s and 0.0293 µM/s, the Rate ([3]; GUS: Roseburia inulinvorans, Fig. 3a, replicates 1-3) was 0.1707 µM/s and 0.1889 µM/s and 0.1974 µM/s and the Rate ([3]; GUS: Ruminoccus gnavus 1, Fig. 3a, replicates 1-3) was 0.0272 µM/s and 0.0287 µM/s and 0.0319 µM/s. For the same compound, the Rate ([3]; GUS: Ruminoccus gnavus 3, Fig. 3a, replicates 1-3) was 0.1417 µM/s and 0.1517 µM/s and 0.1712 µM/s and the Rate ([3]; GUS: Streptococcus agalactiae, Fig. 3a, replicates 1-3) was 0.0757 µM/s and 0.0745 µM/s and 0.0702 µM/s.
